Values belong to the compound of their own block, whether it stands above or below them.
Tests used:
[1] = MTT assay of cellular cytotoxicity; type: cell-based; settings: Chinese hamster, CHO-CFTR-wt cells, read-out: TC50; for CC50 at 2 h: 2 h incubation; for CC50 at 24 h: 24 h incubation
Experimental: The cytotoxicity of (1E,6E)-1,7-Bis(3,5-di-tert-butyl-4-hydroxyphenyl)-1,6-heptadiene-3,5-dione (representative of the molecules disclosed in the present invention) was assessed by MTT assay [[3-(4,5-dimethylthiazol-2-yl)-2,5-diphenyl tetrazolium bromide, measuring cellular dehydrogenase activity on CHO-CFTR-wt cell lines. The test is based on the principle that water soluble tetrazolium yellow salt MTT (Sigma®) is converted on purple formazan by mitochondrial dehydrogenase. Cells were grown to confluency in 96-well plates. After incubation with the test compound for 2 or 24 hours, at 37° C., […] of MTT (5 mg/ml) was added. After 4 h of incubation, culture medium was removed and 100 μl of DMSO per well added to solubilise formazan crystals. Optical density (OD) was measured at 570 nm and subtracted to these measured at 630 nm. The amount of purple formazan produced by treated cells is compared with these of untreated control cells (vehicle), dose-response curves were derived using GraphPad Software.

[2] = target: T1, F508del-CFTR chloride channel (Homo sapiens, UniProt P13569, DEL508-508); assay: Radiolabelled iodide efflux, F508del-CFTR chloride channel activity in JME/CF15 cells; type: cell-based; settings: 100 μM for 2 hours, stimulated with forskolin 10 μM plus genistein 30 μM
T1 construct: endogenous in cells; host or cells: JME/CF15 human nasal airway epithelial cells
T1 sequence (P13569 with tags, fused parts or gaps DEL508-508): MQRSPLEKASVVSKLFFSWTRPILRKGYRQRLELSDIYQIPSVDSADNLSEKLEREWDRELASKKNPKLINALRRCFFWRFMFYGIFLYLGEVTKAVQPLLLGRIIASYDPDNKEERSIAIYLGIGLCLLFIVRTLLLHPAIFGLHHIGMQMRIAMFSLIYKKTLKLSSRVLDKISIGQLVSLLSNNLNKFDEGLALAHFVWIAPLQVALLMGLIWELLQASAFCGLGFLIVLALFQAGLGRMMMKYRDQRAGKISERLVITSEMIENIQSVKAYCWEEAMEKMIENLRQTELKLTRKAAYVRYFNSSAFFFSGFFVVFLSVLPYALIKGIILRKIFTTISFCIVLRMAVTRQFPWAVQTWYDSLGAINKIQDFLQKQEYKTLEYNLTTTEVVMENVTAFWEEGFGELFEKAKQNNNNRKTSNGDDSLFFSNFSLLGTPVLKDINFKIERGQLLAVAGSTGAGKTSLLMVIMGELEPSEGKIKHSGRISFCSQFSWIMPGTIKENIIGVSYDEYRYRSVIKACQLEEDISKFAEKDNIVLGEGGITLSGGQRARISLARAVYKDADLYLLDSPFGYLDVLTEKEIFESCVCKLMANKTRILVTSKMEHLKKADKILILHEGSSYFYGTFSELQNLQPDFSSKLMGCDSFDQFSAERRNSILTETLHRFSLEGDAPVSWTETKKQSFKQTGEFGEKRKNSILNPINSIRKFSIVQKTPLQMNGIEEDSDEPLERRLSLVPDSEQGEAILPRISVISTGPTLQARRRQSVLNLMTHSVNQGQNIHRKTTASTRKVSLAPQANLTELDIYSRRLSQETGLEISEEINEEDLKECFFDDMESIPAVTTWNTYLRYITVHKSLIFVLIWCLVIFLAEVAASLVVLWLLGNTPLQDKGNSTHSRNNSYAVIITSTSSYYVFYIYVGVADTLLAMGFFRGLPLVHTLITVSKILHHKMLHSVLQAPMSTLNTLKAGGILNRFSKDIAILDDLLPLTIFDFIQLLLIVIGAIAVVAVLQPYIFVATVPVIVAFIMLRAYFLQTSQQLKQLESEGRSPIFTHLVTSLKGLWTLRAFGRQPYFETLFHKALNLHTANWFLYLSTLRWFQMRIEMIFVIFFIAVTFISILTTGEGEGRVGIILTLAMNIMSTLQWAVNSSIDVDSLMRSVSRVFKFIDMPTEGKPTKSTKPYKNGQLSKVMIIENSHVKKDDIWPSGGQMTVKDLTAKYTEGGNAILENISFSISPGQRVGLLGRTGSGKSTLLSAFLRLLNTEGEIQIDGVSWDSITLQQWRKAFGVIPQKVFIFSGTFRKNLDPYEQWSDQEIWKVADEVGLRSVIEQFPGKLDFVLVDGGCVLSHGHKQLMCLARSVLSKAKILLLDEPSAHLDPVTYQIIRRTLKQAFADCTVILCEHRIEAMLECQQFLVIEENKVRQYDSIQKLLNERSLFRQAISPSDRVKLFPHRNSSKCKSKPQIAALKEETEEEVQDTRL
Experimental: (§1) The human nasal airway epithelial cells JME/CF15 were cultured in 24-well plates to 90% confluence. (1E,6E)-1,7-Bis(3,5-di-tert-butyl-4-hydroxyphenyl)-1,6-heptadiene-3,5-dione was added at 100 μM for 2 hours, at 37° C., 5% CO2. After incubation, chloride channel activity was assayed by measuring the rate of radio labelled iodide (125 l) efflux using liquid handling robots. The compound was tested in quadruplicate. Cells were incubated in physiologic solution containing 1 μM Kl and 1 μCi Na 125 l/ml during 1 h at 37° C. Extra cellular 125 l was removed by 3 washes of cells, and the loss of intracellular 125 l is determined by removing the medium with physiological solution every minute for up to 9 min 6. A cocktail of forskolin (10 μM) plus genistein (30 μM) was added at the third minute to stimulate F508del-CFTR chloride channel activity. Statistics and curves were derived at using Graph Pad Software.

JME/CF15 cells = assay: Intracellular calcium mobilization (Fluo-4, confocal microscopy) in JME/CF15 cells; type: cell-based, human; settings: 100 μM during 2 h, absence of extra cellular calcium
From the text: A number of epithelial chloride channels are calcium dependent. Therefore molecules which increase cytosolic calcium release or reduce calcium re-uptake by the intracellular stores may be beneficial to increase chloride secretion via a calcium-regulated chloride signaling pathway. Alternatively, a decrease in the activity calcium dependant proteins playing a vital role in retaining misfolded F508-CFTR in the ER may also seem a promising strategy in cystic fibrosis therapy.
JME/CF15 cells were loaded with 3 μM Fluo-4 acetoxymethyl (AM)ester for 20 min at room temperature in buffer solution containing: (in mM) 130 NaCl, 5.4 KCl, 2.5 CaCl2, 0.8 MgCl2, 5.6 glucose, 10 Hepes, pH 7.4 adjusted with Tris base), rinsed and allowed to equilibrate for 5-10 min. Ca2+ activity was recorded by confocal laser scanning microscopy using Bio-Rad MRC 1024 equipped with 15 mW Ar/Kr gas laser (Hemel Hempstead, UK). Maximal resolution was obtained with Olympus plan apo X60 oil, 1.4 NA, objective lens. Fluorescence signal collection was performed through the control software Lasersharp 3.2 (Bio-Rad). The resolution time was 30 s for the protocol in which cells are incubated 2 h in the presence of (1E,6E)-1,7-Bis(3,5-di-tert-butyl-4-hydroxyphenyl)-1,6-heptadiene-3,5-dione. All the experiments were performed at minimum on two different cell passages. […]

wt-CFTR channel = target: T2, wt-CFTR channel (Homo sapiens, UniProt P13569); assay: Iodide efflux, wild type CFTR chloride channel activity in CHO-CFTR-wt cells; type: cell-based; settings: 100 μM acute (no incubation) in presence of Forskolin 1 μM
T2 construct: expressed in transfected cells; host or cells: CHO-CFTR-wt cells
T2 sequence (P13569 whole entry): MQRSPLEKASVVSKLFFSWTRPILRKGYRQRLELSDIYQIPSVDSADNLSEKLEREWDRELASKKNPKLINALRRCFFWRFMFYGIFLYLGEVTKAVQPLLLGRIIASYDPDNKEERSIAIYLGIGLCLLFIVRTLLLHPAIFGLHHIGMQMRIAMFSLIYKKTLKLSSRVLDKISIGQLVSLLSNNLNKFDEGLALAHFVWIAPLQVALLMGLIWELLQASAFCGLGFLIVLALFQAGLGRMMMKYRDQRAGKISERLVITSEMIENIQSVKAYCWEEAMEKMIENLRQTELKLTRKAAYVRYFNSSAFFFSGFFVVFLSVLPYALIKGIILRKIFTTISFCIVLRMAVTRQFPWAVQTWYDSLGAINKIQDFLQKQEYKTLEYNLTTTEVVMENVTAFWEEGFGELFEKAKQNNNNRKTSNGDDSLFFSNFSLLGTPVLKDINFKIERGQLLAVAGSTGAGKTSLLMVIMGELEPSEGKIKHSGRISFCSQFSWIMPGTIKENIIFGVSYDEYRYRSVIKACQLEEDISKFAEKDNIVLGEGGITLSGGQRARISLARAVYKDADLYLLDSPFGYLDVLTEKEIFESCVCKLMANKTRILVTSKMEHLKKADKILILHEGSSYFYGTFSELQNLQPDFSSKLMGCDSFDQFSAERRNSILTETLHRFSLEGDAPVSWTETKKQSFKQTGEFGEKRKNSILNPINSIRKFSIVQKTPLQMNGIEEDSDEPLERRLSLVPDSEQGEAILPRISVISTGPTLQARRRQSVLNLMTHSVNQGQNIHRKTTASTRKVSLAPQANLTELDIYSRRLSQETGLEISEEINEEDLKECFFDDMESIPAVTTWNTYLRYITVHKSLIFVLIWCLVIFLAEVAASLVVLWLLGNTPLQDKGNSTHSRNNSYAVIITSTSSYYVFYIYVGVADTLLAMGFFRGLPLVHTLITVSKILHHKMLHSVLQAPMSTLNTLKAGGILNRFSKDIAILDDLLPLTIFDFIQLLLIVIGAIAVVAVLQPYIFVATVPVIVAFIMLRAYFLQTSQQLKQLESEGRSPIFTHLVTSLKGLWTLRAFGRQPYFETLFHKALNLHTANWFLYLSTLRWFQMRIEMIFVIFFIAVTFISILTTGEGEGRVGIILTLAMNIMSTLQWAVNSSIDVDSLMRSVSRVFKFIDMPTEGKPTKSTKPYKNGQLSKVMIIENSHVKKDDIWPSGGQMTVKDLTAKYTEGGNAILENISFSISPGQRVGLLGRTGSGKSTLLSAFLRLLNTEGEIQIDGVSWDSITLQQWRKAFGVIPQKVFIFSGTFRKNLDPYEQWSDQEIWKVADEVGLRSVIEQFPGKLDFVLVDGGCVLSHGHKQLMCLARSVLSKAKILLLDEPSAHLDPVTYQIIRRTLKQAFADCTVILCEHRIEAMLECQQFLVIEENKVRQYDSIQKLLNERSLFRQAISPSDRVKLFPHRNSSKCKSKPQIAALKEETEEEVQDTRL
Experimental: as §1
To test the potency to stimulate wt-CFTR channel activity, CHO-CFTR-wt cells were cultured in 24-well plates to 90% confluence. Iodide efflux experiments were carried as described above. (1E,6E)-1,7-Bis(3,5-di-tert-butyl-4-hydroxyphenyl)-1,6-heptadiene-3,5-dione was added in the third minute in the presence or absence of Forskolin (1 μM). The compound was tested in acute (no incubation) at 100 μM in presence of Forskolin 1 μM. […]

Structure (SMILES): COc1cc(/C=C/C(=O)CC(=O)/C=C/c2ccc(O)c(OC)c2)ccc1O [Curcumin, (1E,6E)-1,7-Bis(4-hydroxy-3-methoxyphenyl)-1,6-heptadiene-3,5-dione, reference compound]
- CC50 at 2 h [1]: 50.1 ± 1.1 µM
- CC50 at 24 h [1]: 42.7 ± 1 µM

- melting point: 192 to 196 °C
Structure (SMILES): CC(C)(C)c1cc(/C=C/C(=O)CC(=O)/C=C/c2cc(C(C)(C)C)c(O)c(C(C)(C)C)c2)cc(C(C)(C)C)c1O [(1E,6E)-1,7-Bis(3,5-di-tert-butyl-4-hydroxyphenyl)-1,6-heptadiene-3,5-dione]
- restoration of F508del-CFTR protein at the plasma membrane (iodide efflux) [2]: able to restore the F508del-CFTR protein at the plasma membrane of CF cells
- CC50 at 2 h [1]: > 100 µM
- CC50 at 24 h [1]: > 100 µM
- intracellular mobilization of Ca2+ (JME/CF15 cells): induced intracellular mobilization of Ca^2+
- wild-type CFTR chloride channel activity (wt-CFTR channel): insignificant wild-type CFTR chloride channel activity

From patent US7521580B1, “Non-cytotoxic synthetic analogues of (1E, 6E)-1, 7-Bis (4-hydroxy-3-methoxyphenyl)-1, 6-heptadiene-3, 5-Dione and therapeutic applications thereof in cystic fibrosis” (Sami Labs Ltd., priority 2008, dated 2009)
